Assay results as given in paper PMC5924804, “Various Bee Pheromones Binding Affinity, Exclusive Chemosensillar Localization, and Key Amino Acid Sites Reveal the Distinctive Characteristics of Odorant-Binding Protein 11 in the Eastern Honey Bee, Apis cerana” (Frontiers in Physiology, 2018).
Numbering of substitutions follows the chain as printed. Read-outs that look alike come from different tables or passages of the source. One block for each compound: values may come before it.

Key:
[1] = biological target: recombinant AcerOBP11 (Apis cerana, UniProt S5CRW7); assay: biochemical; type: binding
Chain of recombinant AcerOBP11 (S5CRW7 entry or part of it): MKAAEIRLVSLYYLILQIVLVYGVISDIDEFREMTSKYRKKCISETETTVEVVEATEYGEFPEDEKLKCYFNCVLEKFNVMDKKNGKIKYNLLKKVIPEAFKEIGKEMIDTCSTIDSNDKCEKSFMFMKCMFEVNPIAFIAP
Description: (§1) The interactions were monitored by recording 1-NPN fluorescence upon addition of 1-NPN aliquots with excitation wavelength of 337 nm, and emission wavelength of 350–450 nm, where the slit was 5 nm. Titrations were carried out at 25°C with 1 μmol/L recombinant protein in PBS buffer. The fluorescence intensities at the maximum of emission wavelength (400~410 nm) were recorded to calculate Scatchard plots. The dissociation constant of the protein/1-NPN complex (K1−NPN) was calculated from Scatchard plots and applied in the equation below to estimate ligand binding affinity. All 23 ligands (1 mM) used in competition experiments were dissolved in spectrally pure grade methanol. Three independent measurements were taken for binding data.

[2] = biological target: T1, AcerOBP11m-Ile97 (Ile97Gly mutant) (Apis cerana, UniProt S5CRW7, I97G); assay: Fluorescence competitive binding assay with 1-NPN, mutant AcerOBP11m-Ile97
T1 sequence (S5CRW7 1-142 I97G): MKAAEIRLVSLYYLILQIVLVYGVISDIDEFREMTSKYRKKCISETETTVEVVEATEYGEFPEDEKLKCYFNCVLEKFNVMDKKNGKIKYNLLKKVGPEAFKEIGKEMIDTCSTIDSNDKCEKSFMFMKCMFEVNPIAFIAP
Description: as §1, with “Fluorescence experiments on AcerOBP11 with N-phenyl-1-naphthylamine (1-NPN) were carried out on a Shimadzu RF-5301 spectrofluorimeter using a quartz cuvette in a right-angle configuration. The interactions” for “The interactions”
(§2) In order to verify whether the predicted interaction sites played a role in the binding of AcerOBP11 protein with ligands, site-directed mutagenesis of the corresponding amino acid was carried out. The mutant primers were designed by a partial overlap method before synthesis. The plasmids of pET-32a/AcerOBP11 wild-type were mutated by using fast mutagenesis system kit (Transgen, CN) and then transformed into BL21 (DE3) competent cells. The mutant plasmids of target sites were confirmed by sequencing, and then the mutant proteins were obtained by the induction and purification in the same method as AcerOBP11 wild-type above. The secondary structure of purified AcerOBP11 recombinant protein mutants was also analyzed using circular dichroism (CD) spectrometry (815 type, Jasco, JP). The mutant proteins were used for competitive fluorescence experiments with the six candidate ligands chosen from the previous section. The target amino acids and binding mode of AcerOBP11 binding with candidate ligands were acquired by comparing the dissociation constant KD between wild-type and mutant AcerOBP11. Statistical analysis data (mean ± SE) of KD values for the same mutated amino acid site were also used as one-way analysis of variance (ANOVA) followed by a mean LSD test.

[3] = biological target: T2, AcerOBP11m-Ile140 (Ile140Gly mutant) (Apis cerana, UniProt S5CRW7, I140G); assay: Fluorescence competitive binding assay with 1-NPN, mutant AcerOBP11m-Ile140
T2 sequence (S5CRW7 1-142 I140G): T1 sequence (S5CRW7 1-142 I97G) with G97I, I140G
Description: as §1, with “Fluorescence experiments on AcerOBP11 with N-phenyl-1-naphthylamine (1-NPN) were carried out on a Shimadzu RF-5301 spectrofluorimeter using a quartz cuvette in a right-angle configuration. The interactions” for “The interactions”
as §2

[4] = biological target: T3, AcerOBP11m-Phe101 (Phe101Gly mutant) (Apis cerana, UniProt S5CRW7, F101G); assay: Fluorescence competitive binding assay with 1-NPN, mutant AcerOBP11m-Phe101; settings: for change of KD compared with AcerOBP11-wt: AcerOBP11m-Phe101 vs wild-type
T3 sequence (S5CRW7 1-142 F101G): T1 sequence (S5CRW7 1-142 I97G) with G97I, F101G
Description: as §1, with “Fluorescence experiments on AcerOBP11 with N-phenyl-1-naphthylamine (1-NPN) were carried out on a Shimadzu RF-5301 spectrofluorimeter using a quartz cuvette in a right-angle configuration. The interactions” for “The interactions”
as §2

[5] = biological target: ASP1; parameters: method as in Weng et al., 2013; settings: ref Weng et al., 2013; cited from earlier work
[6] = biological target: ASP2; parameters: method as in Li et al., 2013; settings: ref Li et al., 2013; cited from earlier work
[7] = calculated from IC50, KD = [IC50]/(1+[1-NPN]/K1-NPN), Table 1, read-out: KD
[8] = displacement of 1-NPN, 1 μmol/L protein in PBS, 25°C, Table 1, read-out: [IC50]
[9] = KD, calculated from IC50, KD = [IC50]/(1+[1-NPN]/K1-NPN), Table 1
[10] = [IC50], AcerOBP11-wt, Table S4, mean ± SE
[11] = [IC50], displacement of 1-NPN, 1 μmol/L protein in PBS, 25°C, Table 1
[12] = AcerOBP11m-Ile97, Table S4, mean ± SE, read-out: KD
[13] = AcerOBP11m-Ile97, Table S4, mean ± SE, read-out: [IC50]
[14] = AcerOBP11m-Ile140, Table S4, mean ± SE, read-out: KD
[15] = AcerOBP11m-Ile140, Table S4, mean ± SE, read-out: [IC50]
[16] = AcerOBP11m-Phe101, Table S4, mean ± SE, read-out: KD
[17] = AcerOBP11m-Phe101, Table S4, mean ± SE, read-out: [IC50]
[18] = KD, AcerOBP11-wt, Table S4, mean ± SE

Structure (SMILES): CC1CCC(C(C)C)C(O)C1 (racemic) [DL-Menthol]
IC50 [1]: 26.2 µM | Kd [1]: 4.34 µM

Structure (SMILES): CC12CCC(CC1)C(C)(C)O2 [1,8-Cineole]
IC50 [1]: 21.1 µM | Kd [1, 7]: 4.3 µM

Kd [1, 7]: 4.32 µM | IC50 [1, 8]: 31.1 µM
Structure (SMILES): CCCCCC(C)=O [2-Heptanone]

Kd [1, 7]: 4.76 µM | IC50 [1, 8]: 36.7 µM
Structure (SMILES): Cc1ccc(C=O)cc1C [3,4-Dimethylbenzaldehyde]

Kd [1, 7]: 9.79 µM
Structure (SMILES): CC1=CCC2C(C1)C2(C)C (stereo not drawn) [3-Carene]

Structure (SMILES): C=CCc1ccc(OC)c(OC)c1 [4-Allylveratrole]
Kd [1, 9]: 2.67 µM | IC50 [1, 10]: 21 ± 0.22 µM | IC50 [1, 11]: 16.8 µM | Kd [2, 12]: 5.83 ± 0.06 µM | IC50 [2, 13]: 25.823 ± 0.022 µM | change of KD compared with AcerOBP11-wt ([2]; AcerOBP11m-Ile97 vs wild-type): significantly increased | Kd [3, 14]: 4.28 ± 0.279 µM | IC50 [3, 15]: 22.5 ± 1.46 µM | Kd [4, 16]: 4.84 ± 0.092 µM | IC50 [4, 17]: 20.1 ± 0.381 µM | change of KD compared with AcerOBP11-wt [4]: did not observe significant increases

Kd [1, 7]: 6.67 µM | IC50 [1, 8]: 36.9 µM | Kd ([1]; read-out: KD): < 10 µM
Structure (SMILES): CC(=O)CCCCC/C=C/C(=O)O [9-ODA, (E)-9-oxo-2-decanoic acid]

Structure (SMILES): CCCCCCCCCCCCCCCC(=O)OCC [Ethyl palmitate]
Kd [1, 18]: 3.788 ± 0.012 µM | Kd [1, 9]: 3.82 µM | IC50 [1, 10]: 24.39 ± 0.076 µM | IC50 [1, 11]: 19.4 µM | Kd [2, 12]: 1.86 ± 0.022 µM | IC50 [2, 13]: 6.61 ± 0.076 µM | Kd [3, 14]: 5.34 ± 0.167 µM | IC50 [3, 15]: 16.6 ± 0.52 µM | Kd [4, 16]: 3.89 ± 0.143 µM | IC50 [4, 17]: 20.3 ± 0.747 µM | change of KD compared with AcerOBP11-wt [4]: did not observe significant increases

Structure (SMILES): CC(C)=CCC/C(C)=C/CC/C(C)=C/CO [Farnesol]
Kd [1, 9]: 4.71 µM | IC50 [1, 10]: 20.6 ± 0.237 µM | IC50 [1, 11]: 32.2 µM | Kd [2, 12]: 5.24 ± 0.069 µM | IC50 [2, 13]: 21.3 ± 0.237 µM | change of KD compared with AcerOBP11-wt ([2]; AcerOBP11m-Ile97 vs wild-type): significantly increased | Kd [3, 14]: 4.93 ± 0.133 µM | IC50 [3, 15]: 19.9 ± 0.536 µM | Kd [4, 16]: 3.14 ± 0.072 µM | IC50 [4, 17]: 17.8 ± 0.411 µM

Kd [1, 9]: 8.58 µM | IC50 [1, 11]: 39.9 µM
Structure (SMILES): CC(C)=CCC/C(C)=C/CO [Geraniol]

Structure (SMILES): COC(=O)c1ccc(O)cc1 [HOB, methyl p-hydroxybenzoate]
Kd ([1]; KD): < 10 µM | Kd [1, 9]: 1.35 µM | IC50 [1, 10]: 8.31 ± 0.156 µM | IC50 [1, 11]: 8.33 µM | IC50 [2]: 6.09 ± 0.156 µM | Kd [2]: 1.48 ± 0.045 µM | IC50 [3]: 5.57 ± 0.114 µM | Kd [3]: 1.91 ± 0.039 µM | IC50 [4]: 6.257 ± 0.025 µM | Kd [4]: 1.447 ± 0.006 µM | change of KD compared with AcerOBP11-wt [4]: did not observe significant increases

Structure (SMILES): CC(=O)OCCC(C)C [Isoamyl acetate]
Kd [1, 9]: 3.3 µM | IC50 [1, 10]: 16.88 ± 0.144 µM | IC50 [1, 11]: 24 µM | Kd [2, 12]: 4.544 ± 0.022 µM | IC50 [2, 13]: 17.75 ± 0.144 µM | change of KD compared with AcerOBP11-wt ([2]; AcerOBP11m-Ile97 vs wild-type): significantly increased | Kd [3, 14]: 3.99 ± 0.221 µM | IC50 [3, 15]: 12.9 ± 0.697 µM | increase of KD compared with AcerOBP11-wt ([3]; AcerOBP11m-Ile140 vs wild-type, p < 0.01): 1.8 fold | Kd [4, 16]: 2.61 ± 0.063 µM | IC50 [4, 17]: 10.7 ± 0.26 µM | change of KD compared with AcerOBP11-wt [4]: did not observe significant increases

Structure (SMILES): C=CC(C)(O)CCC=C(C)C (stereo not drawn) [Linalool]
IC50 [1]: 55 µM | Kd [1]: 9.53 µM

Structure (SMILES): CCCCCCCC/C=C\CCCCCCCC(=O)OC [Methyl oleate]
relative fluorescence of 1-NPN ([1]; ligand 1-11 μmol/L): ≥ 50%

Kd [1, 7]: 4.38 µM | IC50 [1, 8]: 21 µM
Structure (SMILES): CCCCCCCCCCCCCCCC(=O)OC [Methyl palmitate]

Structure (SMILES): COC(=O)c1ccccc1O [Methyl salicylate]
IC50 [1]: 40 µM | Kd [1]: 6.83 µM

Kd [1, 7]: 10.7 µM | IC50 [1, 8]: 45.7 µM
Structure (SMILES): C=CC(=C)CCC=C(C)C [Myrcene]

Structure (SMILES): CCCCCCCCCCCCCC(=O)O [Myristic acid]
IC50 [1]: 45.2 µM | Kd [1]: 7.71 µM

Kd [1, 9]: 6.13 µM | IC50 [1, 11]: 33.9 µM
Structure (SMILES): CC(C)=CCC/C(C)=C\CO [Nerol]

Structure (SMILES): O=CCc1ccccc1 [Phenylacetaldehyde]
IC50 [1]: 21.6 µM | Kd [1]: 3.75 µM

Structure (SMILES): CCCCCCO [n-hexanol]
Kd [1, 18]: 2.79 ± 0.104 µM | Kd [1, 9]: 2.79 µM | IC50 [1, 10]: 21.1 ± 0.785 µM | Kd [2, 12]: 10.1 ± 0.456 µM | IC50 [2, 13]: 33.4 ± 0.785 µM | change of KD compared with AcerOBP11-wt ([2]; AcerOBP11m-Ile97 vs wild-type): significantly increased | increase of KD compared with AcerOBP11-wt ([2]; AcerOBP11m-Ile97 vs wild-type, p < 0.01): 3.60 fold | Kd [3, 14]: 3.19 ± 0.076 µM | IC50 [3, 15]: 11.8 ± 0.283 µM | Kd [4, 16]: 2.321 ± 0.02 µM | IC50 [4, 17]: 14.26 ± 0.124 µM

Kd [1, 9]: 3.79 µM | IC50 [1, 11]: 21.1 µM
Structure (SMILES): CC(=O)/C=C/C1=C(C)CCCC1(C)C [β- Ionone]
Kd [5]: 14.7 µM | Kd [6]: 5.14 µM
